Assay results reported in PMC9889419 (Pharmacological Reports, 2022).
Values joined by “and” are separate entries in the source; they are usually repeats but may differ in a detail not shown here. Equal entries are not always repeated. Where two headings read alike, the source gives them in different places. Marks after values point to notes of the source that are not given here.

Legend:
mice [1] = details: at 40 and 80 mg/kg, ip; cited from earlier work
mice [2] = details: ip; cited from earlier work
Frings mice = details: cited from earlier work
rats [3] = type: in vivo; details: ip
rats [4] = assay: Maximal electroshock seizure (MES) test; type: in vivo
rats [5] = details: ip
Protocol: (§3) The assays were carried out within the Epilepsy Therapy Screening Program (ETSP, previously known as the Anticonvulsant Screening Program, ASP), Epilepsy Branch, National Institute of Neurological and Communicative Disorders and Stroke, National Institutes of Health in Rockville, MD, USA [23].

mice [6] = assay: Subcutaneous pentylenetetrazole seizure test (ScPTZ, SCMET); type: in vivo; details: mice, ip, […]
Protocol: as §3

rats [7] = assay: Rotarod / TOX (neurotoxicity); details: rats, ip
Protocol: as §3
(§4) The obtained compounds were screened for antiseizure activity and neurotoxicity in vivo within the Epilepsy Therapy Screening Program (ETSP, previously known as the Anticonvulsant Screening Program, ASP), Epilepsy Branch, National Institute of Neurological and Communicative Disorders and Stroke, National Institutes of Health in Rockville, MD, USA [23].

mice [8] = assay: 6 Hz test; type: in vivo; details: mice
Protocol: The 6 Hz model test was carried out according to the protocol originally described by Brown et al. [54] and more recently by Barton et al. [55] and Kamiński et al. [47] and is a model of pharmacoresistant epilepsy [56].

mice [9] = assay: Rotarod test (neurotoxicity); type: in vivo; details: mice;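 note: in vivo neurotoxicity screen run within the NIH Epilepsy Therapy Screening Program (ETSP, formerly Anticonvulsant Screening Program)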
Protocol: as §3, §4

rats [10] = type: in vivo; details: ip; remark: listed apart in the source
[11] = test system: organotypic hippocampal slice cultures; assay: Neuroprotection primary screen, excitotoxin kainic acid; type: cell-based; details: kainic acid 20 µM; 10 and 100 µM compound
Protocol: Compound 2 : ADD t{umber, b890s0 Batch: lB- Date Compteted. Ect\,t""201 0 […]
Excilotoxin: llGinic ncia Insult Duration: l+ Hours Solvent: […]
Ai lxn zopr.,r aZ lxa zopr,r Ae lre zoprta
Bz lr<n zopn er ]ra zopr',t l:+aot a r ooprt/|*aa9o8o l oopM lgaeota t oot,tr,t*gB9o8o t oopM […]
The "Primary screen Experiment" is a qualitative assessment of the ability of a compound to prevent excitotoxic cell dearh. organotypic hippocampal slice clltures are treated with N-methyl-D-aipartate lNuoa; o; kainic acid (KA) to induce neuronal cell death. Propidium iodide (Pl), a membrane-impermeant compound, is included in all welts of the culture plate.
Dying cells have compromised cell membranes, thus Pl may diffuse into the cell, intercalate with DNA and ftuoresce. Thus, the intensity of the Pl fluorescence is proportional to the amount of cell death in the individual slices. Hippocampal slice cultures are treated with the excitotoxin alone, or where indicated above, with the excitotoxin and either one eltu/o investigational compounds at the concentrations indicated. lf neuroprotection occurs as a consequence of the added […]
(§1) been treated with the excitotoxin alone.
(§2) (1 picture or pasted object on this page, not shown here)

mice [12] = assay: iv pentylenetetrazole (PTZ) seizure threshold test; details: compound ip
Protocol: (§5) They were also evaluated in the iv pentylenetetrazole (PTZ) test.
(§6) Data are expressed as the mean PTZ dose ± SEM for n = 10 that induced clonus or twitch in mice exposed to a particular dose of the test compound

[13] = test system: organotypic hippocampal slice cultures; assay: Neuroprotection primary screen, excitotoxin NMDA; type: cell-based; details: NMDA 10 µM; 10 and 100 µM compound
Description: Gompound 1 : ADD Number: ItSot+ Batct: lE- Date Started:
Compound 2 : ADD Number: Froso Batct: le Date Completed i l|26-M ar -20 1 O […]
Excitotoxin: lNmoa lnsult Duration: la Uouo Solvent:
Primary Screen Results: ffi […]
Al lruuoa rolrr,| A2lr'rrr,tOa r Olrrr,t * --.- A3 lr'rnroa r oprvr + lsaoot+ t oplrl+aesogo iopM
BZ lr.rrr,ron ropr,t , -_-_-- 83 lluoa topt',r * jffi 1 4 t oopM.€sroso 1 oolrM la+eota tooptu*aasoeo roffi […]
The 'Primary screen Experiment" is a qualitative assessment of the ability of a compound to prevent excrtotoxic cell death. organotypic hippocampal slice cultures are treated *ltn r.i-."iivr-o-"spartate (NMDA) or kainic acad (KA) to induce neuronal cell death' Propidium iodide (Pl), a membrane-imper.eant cornpouna, is included in all wells of the culture plate.
Dying cells have compromised *]lT^"Toj*::, ttr. er rnJy oin "" into the cell, intercatate with DNA and fluoresce. Thus, the intensity of the Pl fluorescence is proportional to the amount of cell death in lhe individual itices. ttippocampat slice cullures are treated with the excitotoxin alone, or *i er. inoi"ui"o above, with the excitotoxin and either one -qf]bar-a Investigalional compounds at the concentrations indicated. lf neuroprotectron occurs as a consequence of the added […]
as §1, §2

rats [14] = assay: Acute toxicity (ETSP screening); type: in vivo; details: ip, 0.5 h
mice [15] = assay: Formalin test (ETSP, area under the curve); type: in vivo; details: 20.0 mg/kg, ip
mice [16] = details: mice
Protocol: as §3, §4

mice [17] = assay: Tail immersion test (local anesthetic activity); type: in vivo
Protocol: The tail immersion test in mice. […] The method was performed by subcutaneous (sc) injection of the tested substance dissolved in saline, at a concentration range 0.06–2%, in a constant volume of 0.2 mL about 1 cm from the root of the mouse tail. Fifteen minutes later, the 3-cm distal part of the tail was immersed into temperature-controlled water (50 ± 0.5 °C). The reaction time (latency until the tail is pulled away) was measured by the means of a chronometer. In this assay the cut-off was 20 s [29].

mice [18] = assay: Corneal kindling; type: in vivo; details: […], ip
murine astrocytes [19] = assay: Crystal violet (CV) assay; type: cell-based
Protocol: CV assay. Cells were seeded at a density of 1 × 10^4 cells per well in 96-well plates.

mice [20] = assay: Formalin test (first screening); type: in vivo; details: 30.0 mg/kg, ip
Protocol: Formalin test. The first screening in doses 15 and 30 mg/kg was performed at the Jagiellonian University-Medical College. […] After 30 min, animals were injected with 20 μL of a 0.5% formalin solution into the plantar surface of the hind paw. The total time spent by animal licking or biting the injected paw was assessed for the following 40 min.

guinea pigs [21] = assay: Corneal anesthesia; type: in vivo
Protocol: A. Corneal anesthesia. […] The corneal reflex was examined by irritation of right eye conjunctiva (studied eye) and a left eye conjunctiva (control eye) by horsehair. The strength of local anesthetic activity was determined from the moment of solution instillation to the moment of reflex return. The presence or lack of corneal reflex were assessed. The eye conjunctiva irritation was done 6 times (every 5 s) with the interval of 5 min during the first 30 min [31].

murine astrocytes [22] = assay: MTT assay; type: cell-based
Protocol: Cells were seeded at a density of 1 × 10^4 cells per well in 96 well plates. […] Next, Crystal Dissolving Solution (Cayman) was added to each well.

guinea pigs [23] = assay: Infiltration anesthesia (intradermal wheal test); type: in vivo
Protocol: A painful reaction to a prick of the skin at the centre of the wheal three times and every 5 s with 5 min intervals during the first 30 min of observation was tested. The experiment was continued to achieve a return of a reaction to the prick. The control wheal was done by an intradermal injection of 0.1 mL of 0.9% NaCl [25]. Local anesthesia was determined by calculating the ratio of the number of positive responses (no flinch) to the number of negative responses (flinch).

rats [24] = assay: Sciatic nerve ligation (SNL) model, von Frey test; type: in vivo; details: ip
mice [25] = details: mouse, in vivo
Protocol: as §5, §6

rats [26] = assay: SCMET (subcutaneous Metrazol) test; type: in vivo; details: rats, ip, 0.50 h
slices = assay: Propidium iodide uptake in slices; type: cell-based; details: 100.00 uM
Description: Anticonvulsant Screeninq Proqram
Solvent Code: DMSO Solvent Prep:
Add Compound Conc,(uM) # of slices % ofTotal Propidium lodide Uptake(mean +,/- S.E.M)

## NC(=O)N1c2ccccc2C=Cc2ccccc21 [Carbamazepine]
Mice [1]
  6 Hz: Max. protection: 75%
Mice [2]
  MES ED50: 7.81 (6.32–8.45) mg/kg
Frings mice
  Frings mice sound-induced seizures ED50: 11.2 (7.73–16.2) mg/kg

## CC[C@H](CO)NCCOc1c(C)cccc1Cl [Compound 5, R-(-)-2-((2-(2-chloro-6-methylphenoxy)ethyl)amino)butan-1-ol]
Rats [3]
  Pilocarpine-induced status epilepticus prevention: active at: 50 mg/kg
Rats [3]; 25 mg/kg, 0 h post first Stage III seizure
  Prot./Tested: 2/8
Rats [3]; at 100 mg/kg, […]
  Pilocarpine test: rats died: 2/2
Rats [4]; ip
  MES PI: > 9.12
  MES TPE: 0.25 h
Rats [4]; ip, […]
  MES ED50: 4.65 (2.94–6.88) mg/kg
Rats [4]; po
  MES TPE: 0.5 h
Rats [5]; 30 mg/kg
  LTG-resistant amygdala seizures: rats with toxicity: 3/4
  LTG-resistant amygdala seizures: seizure score by Racine (0–5): 3.5
Rats [5]; 50 mg/kg
  LTG-resistant amygdala seizures: rats with toxicity: 5/5
  LTG-resistant amygdala seizures: seizure score by Racine (0–5): 2.2
Mice [6]
  SCMET ED50: > 70 mg/kg
Rats [7]
  Rotarod TPE: 0.25 h
  Rotarod TD50: > 30 mg/kg
Mice [8]; 32 mA, […], ip
  6 Hz ED50: 33.1 (29–37.8) mg/kg
Mice [8]; 32 mA, ip
  6 Hz TPE: 0.25 h
Mice [9]; ip
  Rotarod TD50: 59.80 (43.80–74.20) mg/kg
Rats [10]
  Hippocampal kindling TPE: 0.75 h
Rats [10]; at 30 mg/kg
  Hippocampal kindling seizure score by Racine (0–5), Rat1: 4
  Hippocampal kindling seizure score by Racine (0–5), Rat2: 0
[11]
  Test Result (neuroprotection): No Neuroprotection
Mice [12]
  influence on seizure threshold: effect was not shown
[13]
  Test Result (neuroprotection): No Neuroprotection
Rats [14]
  Acute toxicity: minimal motor impairment at: 50 mg/kg
Mice [15]
  Area under the curve (I phase): 155.1 ± 44.2
  Area under the curve (II phase): 496.7 ± 164.7
  Area under the curve, % of control (I phase): 78.7; t14 = 1.3050%
  Area under the curve, % of control (II phase): 105.6; t14 = 0.3579%
Mice [15]; listed as 354009
  Area under the curve (II phase): 496.7
  Area under the curve, % of control (I phase): 78.68%
  Area under the curve, % of control (II phase): 105.6%
Mice [16]; ip
  MES ED50: 18.20 (16.60–20.00) mg/kg

## CC[C@H](CO)NCCOc1c(C)cccc1Cl.Cl [Compound 5a, R-(-)-2-((2-(2-chloro-6-methylphenoxy)ethyl)amino)butan-1-ol hydrochloride]
Mice [17]; 0.031%
  Prolongation of the time reaction: 40.0%
  Reaction time to painful stimulus: 4.9 ± 0.9 s
Mice [17]; 0.094%
  Prolongation of the time reaction: 57.1%
  Reaction time to painful stimulus: 5.5 ± 1.6 s
Mice [17]; 0.125%
  Prolongation of the time reaction: 297.1%
  Reaction time to painful stimulus: 13.9 ± 1.8 s
Mice [17]; 0.5%
  Prolongation of the time reaction: 434.3%
  Reaction time to painful stimulus: 18.7 ± 1.3 s
Mice [17]; 2.0%
  Prolongation of the time reaction: 391.4%
  Reaction time to painful stimulus: 17.2 ± 1.9 s
Mice [17]; […]
  Prolongation of the time reaction: 8.6%
  Reaction time to painful stimulus: 3.8 ± 0.5 s
Rats [3]; at 40 mg/kg
  Pilocarpine-induced status epilepticus prevention: result: no activity
Mice [18]; at 25 mg/kg
  Corneal kindling seizure score by Racine (0–5): 4.3
Murine astrocytes [19]
  impact on proliferation (crystal violet): did not exhibit cytotoxic activity and a notable impact on proliferation
Rats [4]; ip
  MES PI: 10.15
  MES TPE: 0.25 h
Rats [4]; ip, […]
  MES ED50: 3.9 (2.1–6.2) mg/kg
Mice [6]
  SCMET ED50: > 70.00 mg/kg
Mice [20]
  % of effect (I phase): 19.4%
  % of effect (II phase): 55.7%
  Time of licking paw ± SEM (I phase): 72.3 ± 8.7 s
  Time of licking paw ± SEM (II phase): 13.5 ± 5.4 s
Rats [7]
  Rotarod TPE: 0.25 h
  Rotarod TD50: 39.6 (36.2–78.3) mg/kg
Mice [8]; 44 mA, TPE 0.5 h, ip
  6 Hz ED50: 52.49 (41.85–67.05) mg/kg
Mice [8]; 44 mA, ip
  6 Hz TPE: 0.5 h
Mice [8]; 44 mA, po
  6 Hz TPE: 0.25 h
Mice [9]; ip
  Rotarod TD50: 54.01 (35.70–64.23) mg/kg
Mice [9]; po
  Rotarod TPE: 0.25 h
  Rotarod TD50: 322.33 (257.98–382.69) mg/kg
Guinea pigs [21]; 0.125%, 5 min
  Inhibition of pain reaction: 46.67* %
Guinea pigs [21]; 0.125%, 30 min
  Inhibition of pain reaction: 0%
Guinea pigs [21]; 0.125%, 60 min
  Inhibition of pain reaction: 0%
Guinea pigs [21]; 0.125%, 120 min
  Inhibition of pain reaction: 0%
Guinea pigs [21]; 0.5%, 5 min
  Inhibition of pain reaction: 80.55*** %
Guinea pigs [21]; 0.5%, 30 min
  Inhibition of pain reaction: 0%
Guinea pigs [21]; 0.5%, 60 min
  Inhibition of pain reaction: 0%
Guinea pigs [21]; 0.5%, 120 min
  Inhibition of pain reaction: 0%
Guinea pigs [21]; […], 5 min
  Inhibition of pain reaction: 36.11* %
Guinea pigs [21]; […], 30 min
  Inhibition of pain reaction: 0%
Guinea pigs [21]; […], 60 min
  Inhibition of pain reaction: 0%
Guinea pigs [21]; […], 120 min
  Inhibition of pain reaction: 0%
Rats [10]
  Hippocampal kindling TPE: 0.25 h
Rats [10]; at 40 mg/kg
  Hippocampal kindling seizure score by Racine (0–5), Rat1: 4
  Hippocampal kindling seizure score by Racine (0–5), Rat2: 0
Murine astrocytes [22]
  cytotoxic activity (MTT): did not exhibit cytotoxic activity
[11]
  Test Result (neuroprotection): No neuroprotection observed
[13]
  Test Result (neuroprotection): No neuroprotection
Mice [15]
  Area under the curve, % of control (I phase): 76.5; t14 = 0.8847%
  Area under the curve, % of control (II phase): 91.5; t14 = 0.5440%
Guinea pigs [23]; 0.125%, 5 min
  Inhibition of pain reaction: 83.33*** %
Guinea pigs [23]; 0.125%, 30 min
  Inhibition of pain reaction: 44.44** %
Guinea pigs [23]; 0.125%, 24 h
  Inhibition of pain reaction: 0%
Guinea pigs [23]; 0.5%, 5 min
  Inhibition of pain reaction: 100*** %
Guinea pigs [23]; 0.5%, 30 min
  Inhibition of pain reaction: 72.22*** %
Guinea pigs [23]; 0.5%, 60 min
  Inhibition of pain reaction: 58.82** %
Guinea pigs [23]; 0.5%, 120 min
  Inhibition of pain reaction: 52.94** %
Guinea pigs [23]; 0.5%, 24 h
  Inhibition of pain reaction: 0%
Guinea pigs [23]; […], 5 min
  Inhibition of pain reaction: 100*** %
Guinea pigs [23]; […], 60 min
  Inhibition of pain reaction: 33.33* %
Guinea pigs [23]; […], 240 min
  Inhibition of pain reaction: 16.67%
Guinea pigs [23]; […], 24 h
  Inhibition of pain reaction: 0%
Mice [16]; ip
  MES ED50: 19.78 (16.16–22.33) mg/kg
Mice [16]; po
  MES PI: 5.03
  MES TPE: 0.25 h
  MES ED50: 64.12 (52.15–75.37) mg/kg
Rats [24]; rat, in vivo
  SNL TPE: 1 h
Rats [24]; rats, von Frey test
  SNL: active at: 4 mg/kg

## CC[C@@H](CO)NCCOc1c(C)cccc1Cl [Compound 6, S-( +)-2-((2-(2-chloro-6-methylphenoxy)ethyl)amino)butan-1-ol]
Rats [3]
  Pilocarpine-induced status epilepticus prevention: active at: 45 mg/kg
Rats [3]; at 90 mg/kg
  Pilocarpine test: deaths: 8 deaths in 9 rats
Mice [25]
  influence on seizure threshold: effect was not shown
Mice [18]
  Corneal kindling ED50: 10.50 (3.67–22.09) mg/kg
Rats [4]; ip
  MES PI: 4.19
  MES TPE: 0.5 h
Rats [4]; ip, 0.5 h (TPE)
  MES ED50: 10.58 (6.69–15.38) mg/kg
Rats [7]
  Rotarod TD50: 44.29 (40.72–47.52) mg/kg
Mice [8]; 32 mA, […], ip
  6 Hz ED50: 20.4 (14.9–25.4) mg/kg
Mice [9]; ip
  Rotarod TD50: 47.7 (32.6–68.3) mg/kg
Mice [9]; ip, 6 Hz report of Aug-2010
  TOX TD50: 35.8 mg/kg
Rats [10]; […]
  Hippocampal kindling ED50: 15.81 mg/kg
Rats [26]
  SCMET ED50: > 60.0 mg/kg
[13]
  Test Result (neuroprotection): No neuroprotection observed
Mice [15]
  Area under the curve (I phase): 135.3 ± 36.4
  Area under the curve (II phase): 387.0 ± 110.1
  Area under the curve, % of control (I phase): 69.3% and 69.3; t14 = 1.5800%
Mice [15]; listed as 354010
  Area under the curve (I phase): 135.2
  Area under the curve (II phase): 387.0
  Area under the curve, % of control (II phase): 57.2%
slices
  % of Total Propidium Iodide Uptake (mean +/- S.E.M): 33.1%
